Where a name gives a salt, the structure may show the parent alone.
melting point	Structure (SMILES)
230 °C (dec.)	CCCCNc1cc(-c2nc(-c3cc(C(=O)OCC)c(C)[nH]c3=O)cs2)ccn1 (as salt: HCl) [Example 56, Ethyl 5-[2-(2-butylamino-pyridin-4-yl)-thiazol-4-yl]-2-methyl-6-oxo-1,6-dihydro-3-pyridinecarboxylate]
270 °C (dec.)	CCOC(=O)c1cc(-c2csc(-c3ccnc(NCCNC(C)=O)c3)n2)c(=O)[nH]c1C (as salt: HCl) [Example 58]
> 260 °C	Cc1[nH]c(=O)c(-c2csc(-c3ccnc(NCC4CC4)c3)n2)cc1C(=O)NCC1CC1 (as salt: HCl) [Example 60, N-(Cyclopropylmethyl)-5-(2-(2-((cyclopropylmethyl)amino)-4-pyridinyl)-1,3-thiazol-4-yl)-2-methyl-6-oxo-1,6-dihydro-3-pyridinecarboxamide]
> 260 °C	CCOC(=O)c1cc(-c2csc(-c3ccnc(NCC4CC4)c3)n2)c(=O)[nH]c1C (as salt: HCl) [Example 61, Ethyl 5-{2-[2-(cyclopropylmethyl-amino)-pyridin-4-yl]-thiazol-4-yl}-2-methyl-6-oxo-1,6-dihydro-3-pyridinecarboxylate]
280 °C (dec.)	COc1ccc(CNC(=O)c2cc(-c3csc(-c4ccnc(NCc5ccc(OC)cc5)c4)n3)c(=O)[nH]c2C)cc1 (as salt: HCl) [Example 63, 5-{2-[2-(4-Methoxy-benzyamino)-pyridin-4-yl]-thiazol-4-yl}-2-methyl-6-oxo-1,6-dihydropyridine-3-carboxylic acid 4-methoxy-benzylamide]
> 230 °C	CCOC(=O)c1cc(-c2csc(-c3ccnc(NC)c3)n2)c(=O)[nH]c1C(C)C (as salt: HCl) [Example 94, Ethyl 5-[2-(methylamino-pyridin-4-yl)-thiazol-4-yl]-2-isopropyl-6-oxo-1,6-dihydro-3-pyridinecarboxylate]
231 to 234 °C	CCOC(=O)c1cc(-c2csc(N(C)S(=O)(=O)c3ccccc3)n2)c(=O)[nH]c1C (as salt: salt) [Example 68, Ethyl 2-methyl-5-{2-[methyl(phenylsulfonyl)amino](1,3-thiazol-4-yl)}-6-oxo-1,6-dihydro-3-pyridinecarboxylate]

The next lines start with the compound.

Structure (SMILES)	melting point
CCOC(=O)c1cc(-c2csc(-c3ccnc(NCc4ccco4)c3)n2)c(=O)[nH]c1C (as salt: HCl) [Example 53, Ethyl 5-(2-(2-[(fur-2-ylmethyl)-amino]-pyridin-4-yl}-thiazol-4-yl)-2-methyl-6-oxo-1,6-dihydro-3-pyridinecarboxylate]	260 °C (dec.)
CCOC(=O)c1cc(-c2csc(-c3ccnc(NCc4ccc(F)cc4)c3)n2)c(=O)[nH]c1C (as salt: HCl) [Example 55, Ethyl 5-{2-[2-(4-fluoro-benzylamino)-pyridin-4-yl]-thiazol-4-yl}-2-methyl-6-oxo-1,6-dihydro-3-pyridinecarboxylate]	280 °C (dec.)
CCOC(=O)c1cc(-c2csc(-c3ccnc(NCC(N)=O)c3)n2)c(=O)[nH]c1C (as salt: HCl) [Example 57, Ethyl 5-{2-[2-(carbamoylmethyl-amino)-pyridin-4-yl]-thiazol-4-yl}-2-methyl-6-oxo-1,6-dihydro-3-pyridinecarboxylate]	270 °C (dec.)
CCOC(=O)c1cc(-c2csc(-c3ccnc(NCC4CCCC4)c3)n2)c(=O)[nH]c1C (as salt: HCl) [Example 62, Ethyl 5-{2-[2-(Cyclopentyl)methylamino-pyridin-4-yl]-thiazol-4-yl}-2-methyl-6-oxo-1,6-dihydro-3-pyridinecarboxylate]	260 °C (dec.)
CCOC(=O)c1cc(-c2csc(-c3ccnc(N(C)C)c3)n2)c(=O)[nH]c1C(C)C (as salt: hydrochloride) [Example 93, Ethyl 5-[2-(dimethylamino-pyridin-4-yl)-thiazol-4-yl]-2-isopropyl-6-oxo-1,6-dihydro-3-pyridinecarboxylate]	> 230 °C

From US20040147561A1, “Pyrid-2-one derivatives and methods of use” (priority 2002, published 2004)
